Laboratory results as given in patent US11512042B2, “Enamine compounds for absorbance of electromagnetic energy” (Commonwealth Scientific and Industrial Research Organisation, priority 2015, dated 2022).
Several values for one entry are separate records, joined by “and”; a condition that tells them apart may be missing. Equal entries are not always repeated.

Legend:
[1] = % transmission spectrum of 0.1% solution (breakthrough, steepness); format: physicochemical; settings: for Steepness: distance in nm over which transmittance increases from 1 to 80%; for Breakthrough (1% T at 0.1%): value in nm where transmittance increases beyond 1%, 0.1% solution
Description: FIG. 2 is a is a graphical representation of the % transmission of compounds 142 and 143 measured in a 2 mm cuvette as 0.1% solutions in methanol (142 is the left most trace);
(§1) The synthesised benzoyl functionalised compounds and their spectroscopic properties can be seen in table 2 wherein; breakthrough denotes the value in nm where transmittance increases beyond 1%; steepness refers to the distance in nm over which transmittance increases from 1 to 80% (a higher value indicates a less steep transition from absorbing to transmitting and is generally unfavourable); and ^a denotes an average of multiple measurements. As a general comment, it can be noted that the benzoyl substituted compounds gave similar absorbance maxima to the corresponding trifluoroacetyl derivative.

[2] = UV absorbance spectrum in solution (λmax, λcrit, extinction coefficients); format: physicochemical; settings: for λcrit: critical wavelength; for E (1%, 1 cm): mass extinction coefficient; for ε: molar extinction coefficient, in M-1 cm-1 (unit assumed)
Description: as §1, with “FIG. 1 is a graphical representation of the absorbance of compounds 142 and 143 measured in a 10 mm cuvette as 0.001% solutions in methanol (142 is the uppermost trace at peak point of approximately 330 nm); The” for “The”

Row | Steepness [1] | Breakthrough (1% T at 0.1%) [1] | λmax [2] | λcrit [2] | E (1%, 1 cm) [2] | ε [2] | SMILES
1 | 20 nm | 397 nm | 359 nm | 378 nm | 1169 and 1350 | 60809 and 70222 | CCCCCCC(=O)C1=CN(c2ccc(N3C=C(C(=O)CCCCCC)C(C)(C)CC3)cc2)CCC1(C)C [Compound 129, reference compound]
2 | – | – | 329 nm | 365 nm | 620 | 23495 | O=C(/C(=C\N(Cc1ccccc1)c1ccccc1)c1ccccc1)C(F)(F)F [Compound 162]
3 | – | – | 354 nm | 383 nm | 811 | 26848 | O=C(/C(=C\N1CCCc2ccccc21)c1ccccc1)C(F)(F)F [Compound 163]
4 | – | – | 331 nm | 365 nm | 673 | 22290 | C=CCN(/C=C(\C(=O)C(F)(F)F)c1ccccc1)c1ccccc1 [Compound 172]
5 | – | – | 320 nm | 354 nm | 707 | 23543 | CCN(/C=C(\C(=O)C(F)(F)F)c1ccccc1)c1ccccc1C [Compound 177]
6 | – | – | 331 nm | 367 nm | 709 | 23605 | CCN(/C=C(\C(=O)C(F)(F)F)c1ccccc1)c1cccc(C)c1 [Compound 186]
7 | – | – | 324 nm | 357 nm | 634 | 23400 | CCN(/C=C(\C(=O)C(F)(F)F)c1ccccc1)c1cccc2ccccc12 [Compound 189]
8 | – | – | 322 nm | 353 nm | 884 | 25028 | O=C(/C(=C\N1CCCCC1)c1ccccc1)C(F)(F)F [Compound 192]
9 | – | – | 323 nm | 354 nm | 769 | 20673 | O=C(/C(=C\N1CCCC1)c1ccccc1)C(F)(F)F [Compound 193]
10 | – | – | 321 nm | 352 nm | 687 | 22743 | O=C(/C(=C\N1CCc2ccccc2C1)c1ccccc1)C(F)(F)F [Compound 194]
11 | – | – | 339 nm | 360 nm | 689 | 33248 | O=C(/C(=C\N1CCN(/C=C(/C(=O)C(F)(F)F)c2ccccc2)CC1)c1ccccc1)C(F)(F)F [Compound 195]
12 | – | – | 344 nm | 378 nm | 714 | 41997 | CCCN(/C=C(\C(=O)C(F)(F)F)c1ccccc1)c1ccc(N(/C=C(\C(=O)C(F)(F)F)c2ccccc2)CCC)cc1 [Compound 196]
13 | – | – | 335 nm | 369 nm | 1166 | 42359 | CCOc1ccc(/C(=C/N(CC)c2ccccc2)C(=O)C(F)(F)F)cc1 [Compound 197]
14 | – | – | 368 nm | 389 nm | 890 | 29804 | O=C(/C(=C\N1CCc2cc(F)ccc21)c1ccccc1)C(F)(F)F [Compound 198]
15 | – | – | 360 nm | 386 nm | 975 | 32273 | Cc1cccc2c1N(/C=C(\C(=O)C(F)(F)F)c1ccccc1)CC2 [Compound 199]
16 | – | – | 355 nm | 387 nm | 903 | 32693 | O=C(/C(=C\N1CCc2ccc([N+](=O)[O-])cc21)c1ccccc1)C(F)(F)F [Compound 202]
17 | – | – | 371 nm | 391 nm | 1108 | 36692 | Cc1ccc2c(c1)CCN2/C=C(\C(=O)C(F)(F)F)c1ccccc1 [Compound 205]
18 | – | – | 398 nm | 396 nm | 1390 | 50315 | O=C(/C(=C\N1CCc2cc([N+](=O)[O-])ccc21)c1ccccc1)C(F)(F)F [Compound 206]
19 | – | – | 320 nm | 351 nm | 855 | 24356 | O=C(/C(=C\N1CCOCC1)c1ccccc1)C(F)(F)F [Compound 209]

Row | Steepness [1] | Breakthrough (1% T at 0.1%) [1] | λmax [2] | λcrit [2] | E (1%, 1 cm) [2] | ε [2] | SMILES
20 | – | – | 326 nm | 356 nm | 819 | 40611 | O=C(/C(=C\N1CCCN(/C=C(/C(=O)C(F)(F)F)c2ccccc2)CC1)c1ccccc1)C(F)(F)F [Compound 210]
21 | – | – | 350 nm | 380 nm | 837 | 28907 | CC1CCc2ccccc2N1/C=C(\C(=O)C(F)(F)F)c1ccccc1 (stereo not shown) [Compound 211]
22 | – | – | 371 nm | 390 nm | 994 | 39265 | O=C(/C(=C\N1CCc2cc(Br)ccc21)c1ccccc1)C(F)(F)F [Compound 214]
23 | – | – | 332 nm | 367 nm | 651 | 25865 | CCN(/C=C(\C(=O)C(F)(F)F)c1ccccc1)c1ccc(Br)cc1 [Compound 216]
24 | – | – | 324 nm | 359 nm | 843 | 29114 | O=C(/C(=C\N1CCCCc2ccccc21)c1ccccc1)C(F)(F)F [Compound 217]
25 | – | – | 375 nm | 391 nm | 833 | 44357 | CCN(CCOC(=O)c1ccc2c(c1)CCN2/C=C(\C(=O)C(F)(F)F)c1ccccc1)C(=O)OC(C)(C)C [Compound 218]
26 | – | – | 376 nm | 391 nm | 710 | 24860 | CN(/C=C(\C(=O)C(F)(F)F)c1ccccc1)c1ccc([N+](=O)[O-])cc1 [Compound 219]
27 | – | – | 332 nm | 371 nm | 532 | 23819 | CCCCC(CC)COc1ccc(N(/C=C(\C(=O)C(F)(F)F)c2ccccc2)CC)cc1 (stereo not shown) [Compound 220]
28 | – | – | 332 nm | 366 nm | 490 | 21876 | CCCCC(CC)COc1cccc(N(/C=C(\C(=O)C(F)(F)F)c2ccccc2)CC)c1 (stereo not shown) [Compound 221]
29 | – | – | 344 nm | 377 nm | 679 | 25885 | Cc1ccccc1N(/C=C(\C(=O)C(F)(F)F)c1ccccc1)c1ccccc1 [Compound 223]
30 | – | – | 332 nm | 366 nm | 609 | 24181 | CCN(/C=C(\C(=O)C(F)(F)F)c1ccccc1)c1cccc(Br)c1 [Compound 225]
31 | – | – | 374 nm | 388 nm | 685 | 43151 | CCN(/C=C(\C(=O)C(F)(F)F)c1ccccc1)CCOC(=O)c1ccc2c(c1)CCN2/C=C(\C(=O)C(F)(F)F)c1ccccc1 [Compound 226]
32 | 33 nm | 403 nm | 356 nm | 382 nm | 786 | 33427 | COC(=O)c1ccc(N(/C=C(\C(=O)C(F)(F)F)c2ccccc2)c2ccccc2)cc1 [Compound 229]
33 | 34 nm | 398 nm | 355 nm | 381 nm | 522 | 27313 | CCCCC(CC)COC(=O)c1ccc(N(/C=C(\C(=O)C(F)(F)F)c2ccccc2)c2ccccc2)cc1 (stereo not shown) [Compound 230]
34 | 35 nm | 373 nm | 334 nm | 368 nm | 430 | 20462 | CCCCC(CC)COC(=O)c1cccc(N(/C=C(/C(=O)C(F)(F)F)c2ccccc2)CC)c1 (stereo not shown) [Compound 232]
35 | 19 nm | 409 nm | 361 nm | 386 nm | 965 | 37158 | O=C(/C(=C\N1CCc2cc(C(F)(F)F)ccc21)c1ccccc1)C(F)(F)F [Compound 235]
36 | 19 nm | 409 nm | 364 nm | 387 nm | 815 | 31379 | O=C(/C(=C\N1CCc2ccc(C(F)(F)F)cc21)c1ccccc1)C(F)(F)F [Compound 236]
37 | 28 nm | 391 nm | 348 nm | 375 nm | 728 | 25349 | CCN(/C=C(/C(=O)C(F)(F)F)c1ccccc1)c1ccc(C(=O)OC)cc1 [Compound 239]
38 | 52 nm | 361 nm | 318 nm | 353 nm | 544 | 30981 | CCN(/C=C(\C(=O)C(F)(F)F)c1ccccc1)CCCCCCN(/C=C(\C(=O)C(F)(F)F)c1ccccc1)CC [Compound 242]

Row | SMILES | Steepness [1] | Breakthrough (1% T at 0.1%) [1] | λmax [2] | λcrit [2] | E (1%, 1 cm) [2] | ε [2]
39 | CCN(/C=C(\C(=O)C(F)(F)C(F)(F)C(F)(F)C(=O)/C(=C\N(CC)c1ccccc1)c1ccccc1)c1ccccc1)c1ccccc1 [Compound 190] | – | – | 330 nm | 370 nm | 616 | 40027
